Measured values: patent US20080085338A1, “Pet Food” (priority 2005, published 2008)

Columns and labels:
[1] = 28-day feeding study in cats, antioxidant status; type: in vivo; settings: dry cat food with 227 mg/kg of EGCG, 28 days, compared with control group
Protocol: Periodontopathic conditions are the most common disease in dogs and cats. Especially in cats, prophylaxis is usually limited to professional dental cleaning under anaesthesia. Special diets which reduce plaque and calculus accumulation have been formulated to extend the period of time between professional dental cleanings. The study was conducted to determine the effect of EGCG in a regular dry diet on the oral health of cats. In addition, the in vitro antibacterial activity of the substance and its effect on the antioxidant status of cats were evaluated. The substance under investigation was sprayed on a standard dry cat food. The supplemented diet contained 227 mg/kg of EGCG. 18 cats were made available for the feeding study, being assigned either to a control group or a study group, each group containing 9 cats. At the beginning of the trial, which was conducted over a period of 28 days, the oral health status of the cats was examined using various indices and tests, and samples from the oral cavity were obtained for bacteriological analysis. In addition, blood samples were taken to determine the antioxidant status of the animal. The examinations were followed by a coronal cleaning (scaling and polishing) to ensure that the study period began with no plaque or calculus present on tooth surfaces (“clean tooth” model). […]

[2] = tested on: bacteria taken from the feline oral cavity; experiment: in vitro antibacterial activity; type: cell-based
Protocol: Periodontopathic conditions are the most common disease in dogs and cats. Especially in cats, prophylaxis is usually limited to professional dental cleaning under anaesthesia. Special diets which reduce plaque and calculus accumulation have been formulated to extend the period of time between professional dental cleanings. The study was conducted to determine the effect of EGCG in a regular dry diet on the oral health of cats. In addition, the in vitro antibacterial activity of the substance and its effect on the antioxidant status of cats were evaluated. […] With a view to achieving better in vivo results, a change in the dosage, and possibly also a change in the mode of administration, can be considered. Further, the active ingredient can be administered in higher concentration, or in such a way as to prolong the time of its contact with the oral cavity. […] This was investigated as a secondary target variable.

O=C(O[C@@H]1Cc2c(O)cc(O)cc2O[C@@H]1c1cc(O)c(O)c(O)c1)c1cc(O)c(O)c(O)c1 [Epigallocatechingallate]
effect on the antioxidant status of the cats [1]: positive effect on the antioxidant status of the cat | inhibition of growth of bacteria taken from the feline oral cavity [2]: able to inhibit the growth bacteria taken from the feline oral cavity in vitro
